Reference: US20100010057A1, “THIAZOLE DERIVATIVES AS INHIBITORS OF P13 KINASE” (CHROMA THERAPEUTICS LTD., priority 2006, published 2010)

Target: PI3Kγ (human) (Homo sapiens, UniProt P48736)
Experiment: Inhibition of PI3 kinase γ activity (HTRF)
Type: biochemical
Conditions: ATP at or close to Km, IC50 range, read-out: Inhibitor activity versus PI3 Kinase γ
Method: (B) Inhibition of PI3 Kinase V Activity
In a final reaction volume of 20 μl, PI3Kγ (human) is incubated in assay buffer containing 10 μM phosphatidylinositol-4,5-bisphosphate and MgATP (concentration as required). The reaction is initiated by the addition of the MgATP mix. After incubation for 30 minutes at room temperature, the reaction is stopped by the addition of 5 μl of stop solution containing EDTA and biotinylated phosphatidylinositol-3,4,5-trisphosphate. Finally, 5 μl of detection buffer is added, which contains europium-labelled anti-GST monoclonal antibody, GST-tagged GRP1 PH domain and streptavidin-allophycocyanin. The plate is then read in time-resolved fluorescence mode and the homogenous time-resolved fluorescence (HTRF) signal is determined according to the formula HTRF=10000×(Em665 nm/Em620 nm).
Duplicate data points are generated from a ⅓ log dilution series of a stock solution of compound in DMSO. Nine dilutions steps are made from a top concentration of 10 μM, and a ‘no compound’ blank is included. The HTRF PI 3-Kinase assay is performed at an ATP concentration at, or close to, the Km. HTRF ratio data is transformed into % activity of controls and analysed with a four parameter sigmoidal dose-response (variable slope) application. QC criteria is based on Top, Bottom, Hill slope, r^2 and IC50, the concentration giving 50% inhibition, which is reported.
For each of the assays (B), (C) and (D) above, IC50 values are allocated to one of three ranges as follows: […]

PI3Kγ (human), sequence (P48736 whole entry): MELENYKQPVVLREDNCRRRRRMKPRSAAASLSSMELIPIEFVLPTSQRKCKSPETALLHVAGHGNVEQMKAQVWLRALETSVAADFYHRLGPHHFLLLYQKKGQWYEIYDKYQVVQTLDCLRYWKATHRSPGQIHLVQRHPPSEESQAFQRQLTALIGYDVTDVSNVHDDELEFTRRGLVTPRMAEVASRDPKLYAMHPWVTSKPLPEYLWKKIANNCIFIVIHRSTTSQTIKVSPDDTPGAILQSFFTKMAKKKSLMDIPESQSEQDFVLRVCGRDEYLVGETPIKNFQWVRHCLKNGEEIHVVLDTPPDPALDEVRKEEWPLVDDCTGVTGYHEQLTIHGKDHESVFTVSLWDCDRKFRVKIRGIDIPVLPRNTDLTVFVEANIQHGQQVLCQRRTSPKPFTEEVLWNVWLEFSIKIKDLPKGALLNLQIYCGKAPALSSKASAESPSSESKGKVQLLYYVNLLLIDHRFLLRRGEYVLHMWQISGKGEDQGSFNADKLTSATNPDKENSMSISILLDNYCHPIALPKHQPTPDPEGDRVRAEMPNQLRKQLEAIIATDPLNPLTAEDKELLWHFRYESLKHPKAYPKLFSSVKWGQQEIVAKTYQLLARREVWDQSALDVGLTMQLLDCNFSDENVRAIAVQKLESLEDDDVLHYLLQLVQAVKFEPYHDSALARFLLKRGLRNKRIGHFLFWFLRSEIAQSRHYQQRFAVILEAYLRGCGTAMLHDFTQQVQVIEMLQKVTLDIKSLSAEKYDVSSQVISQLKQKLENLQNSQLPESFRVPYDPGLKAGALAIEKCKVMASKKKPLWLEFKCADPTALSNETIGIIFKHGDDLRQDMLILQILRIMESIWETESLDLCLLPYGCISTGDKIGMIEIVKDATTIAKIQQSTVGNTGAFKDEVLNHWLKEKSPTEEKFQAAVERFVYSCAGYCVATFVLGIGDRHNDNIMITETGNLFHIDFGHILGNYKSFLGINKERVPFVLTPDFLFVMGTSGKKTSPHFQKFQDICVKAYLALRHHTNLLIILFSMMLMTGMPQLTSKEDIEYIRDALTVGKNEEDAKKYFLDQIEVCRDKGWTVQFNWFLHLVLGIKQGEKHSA

IC50 [nM]	SMILES
> 1000	CC(=O)Nc1nc(C)c(-c2ccc(Cl)c(S(=O)(=O)N[C@@H](CO)C(=O)O)c2)s1 [Example 44, N-{[5-(2-Acetamido-4-methyl-1,3-thiazol-5-yl)-2-chlorophenyl]sulfonyl}-L-serine]
> 1000	Cc1nc(NCC2CCC(N[C@@H](CC(C)C)C(=O)O)CC2)sc1-c1ccc(Cl)c(S(C)(=O)=O)c1 (stereo partly drawn) [Example 40, N-{4-[({5-[4-Chloro-3-(methylsulfonyl)phenyl]-4-methyl-1,3-thiazol-2-yl}amino)methyl]cyclohexyl}-L-leucine]
> 1000	Cc1nc(NC(=O)N[C@@H](COC(C)(C)C)C(=O)O)sc1-c1ccc(Cl)c(S(C)(=O)=O)c1 [Example 30, O-tert-Butyl-N-({5-[4-chloro-3-(methylsulfonyl)phenyl]-4-methyl-1,3-thiazol-2-yl}carbamoyl)-L-serine]
> 1000	Cc1nc(NC(=O)CCN[C@@H](C)C(=O)O)sc1-c1ccc(Cl)c(S(C)(=O)=O)c1 [Example 38, N-[3-({5-[4-Chloro-3-(methylsulfonyl)phenyl]-4-methyl-1,3-thiazol-2-yl}amino)-3-oxopropyl]-L-alanine]
100 to 1000	Cc1nc(NC(=O)CCCN[C@@H](CCC(=O)O)C(=O)OC2CCCC2)sc1-c1ccc(Cl)c(S(C)(=O)=O)c1 [Example 8, (4S)-4-{[4-({5-[4-Chloro-3-(methylsulfonyl)phenyl]-4-methyl-1,3-thiazol-2-yl}amino)-4-oxobutyl]amino}-5-(cyclopentyloxy)-5-oxopentanoic acid]
> 1000	Cc1nc(NC(=O)CCCN[C@@H](Cc2ccccc2)C(=O)O)sc1-c1ccc(Cl)c(S(C)(=O)=O)c1 [Example 36, N-[4-({5-[4-Chloro-3-(methylsulfonyl)phenyl]-4-methyl-1,3-thiazol-2-yl}amino)-4-oxobutyl]-L-phenylalanine]
> 1000	Cc1nc(NC(=O)N[C@@H](Cc2ccccc2)C(=O)O)sc1-c1ccc(Cl)c(S(C)(=O)=O)c1 [Example 31, N-({5-[4-Chloro-3-(methylsulfonyl)phenyl]-4-methyl-1,3-thiazol-2-yl}carbamoyl)-L-phenylalanine]
> 1000	Cc1nc(NC(=O)CCCN[C@@H](CC(C)C)C(=O)O)sc1-c1ccc(Cl)c(S(C)(=O)=O)c1 [Example 32, N-4-({5-[4-Chloro-3-(methylsulfonyl)phenyl-4-methyl-1,3-thiazol-2-yl}amino)-4-oxobutyl]-L-leucine]
> 1000	CC(=O)Nc1nc(C)c(-c2ccc(Cl)c(S(=O)(=O)N[C@@H](C)C(=O)O)c2)s1 [Example 41, N-{[5-(2-Acetamido-4-methyl-1,3-thiazol-5-yl)-2-chlorophenyl]sulfonyl}-L-alanine]
> 1000	CC(=O)Nc1nc(C)c(-c2ccc(Cl)c(S(=O)(=O)N[C@@H](COC(C)(C)C)C(=O)O)c2)s1 [Example 42, N-{[5-(2-Acetamido-4-methyl-1,3-thiazol-5-yl)-2-chlorophenyl]sulfonyl}-O-tert-butyl-L-serine]
> 1000	CC(=O)Nc1nc(C)c(-c2ccc(Cl)c(S(=O)(=O)NCCN[C@@H](CC(C)C)C(=O)O)c2)s1 [Example 43, N-[2-({[5-(2-Acetamido-4-methyl-1,3-thiazol-5-yl)-2-chlorophenyl]sulfonyl}amino)ethyl]-L-leucine]
> 1000	Cc1nc(NC(=O)CCCN[C@@H](C(=O)O)c2ccccc2)sc1-c1ccc(Cl)c(S(C)(=O)=O)c1 [Example 34, (2R)-{[4-({5-[4-Chloro-3-(methylsulfonyl)phenyl]-4-methyl-1,3-thiazol-2-yl}amino)-4-oxobutyl]amino}(phenyl)acetic acid]
> 1000	Cc1nc(NCCCN[C@@H](CC(C)C)C(=O)O)sc1-c1ccc(Cl)c(S(C)(=O)=O)c1 [Example 39, N-[3-({5-[4-Chloro-3-(methylsulfonyl)phenyl]-4-methyl-1,3-thiazol-2-yl}amino)propyl]-L-leucine]
